Experimental data as given in patent publication US4833162A, “Substituted benzeneacetonitriles and their use as calcium channel blockers” (American Cyanamid Company, priority 1988, dated 1989).
Structures can show the parent of a compound that is named as a salt.

Key:
[1] = tested on: thoracic aortae rings (potassium chloride-induced contraction); assay: Calcium antagonist Test 1: inhibition of potassium chloride-induced contraction of rat thoracic aortic rings; type: cell-based, Sprague-Dawley rat; conditions: 50 mM potassium chloride, 37° C., active if >50% inhibition at 3×10^-5 M, read-out: bath concentration at which more than 50% of the potassium chloride-induced contraction was inhibited
Procedure: Male Sprague-Dawley rats, weighing 300-470 g, were killed and their thoracic aortae were removed immediately, cleared of blood, fat and connective tissue and cut into rings 1-2 mm wide. […] The bath media was maintained at 37° C. and aerated with 5% carbon dioxide in oxygen.
At the start of the test, the aortic rings were stretched to an initial tension of one gram. The tissues were then allowed to equilibrate for 90 minutes until they reached a steady tension. Changes in tension were recorded using a force displacement transducer coupled to a Grass polygraph.
The potassium chloride-induced contractions were repeated until a constant tension was obtained. These initial contractions served as a control for subsequent contractions induced in the presence of a test compound.
Each compound was dissolved in ethanol to a stock concentration of 10^-2 M. The ability of these compounds to inhibit a potassium chloride-induced contraction was determined by comparing the tension developed in the presence of each compound versus the control.

rat = assay: Test 2: antihypertensive activity in the rat (MABP and heart rate); type: in vivo; conditions: for antihypertensive activity (comparison in words): Verapamil 50 mg/kg versus 1-methylethyl substituted thio compound 100 mg/kg; for heart rate (HR) / mean arterial blood pressure (MABP): average two rats
Procedure: Antihypertensive activity was measured in the rat by the mean arterial blood pressure (MABP) in millimeters of mercury and heart rate (HR) in beats per minute (average two rats).

renal hypertensive dogs = assay: Test 3: antihypertensive activity in renal hypertensive dogs; type: in vivo, dog
Procedure: Antihypertensive activity was also measured in renal hypertensive dogs.

SMILES	IC50 [1] [µM]	antihypertensive activity (comparison in words) (rat)	heart rate (HR) (rat; dose of 50 mg/kg) [beats per minute]	mean arterial blood pressure (MABP) (rat; dose of 50 mg/kg)	increase in HR of (renal hypertensive dogs; dose of 10 mg/kg)	drop in blood pressure (renal hypertensive dogs; dose of 10 mg/kg, over a four hour period)	heart rate (HR) (rat; dose of 100 mg/kg) [beats per minute]	mean arterial blood pressure (MABP) (rat; dose of 100 mg/kg)	increase in HR to (renal hypertensive dogs; dose of 20 mg/kg)	drop in blood pressure (renal hypertensive dogs; dose of 20 mg/kg, over a two hour period) [millimeter]
COc1ccc(CCN(C)CCSC(C#N)c2ccc(OC)c(OC)c2)cc1OC (stereo not drawn) [unsubstituted thio compound, A-[[2-[[2(3,4-dimethoxyphenyl)ethyl]methylamino]ethyl]thio]-3,4-dimethoxy-A-benzeneacetonitrile monohydrochloride]	3									
COc1ccc(CCN(C)CCCC(C#N)(c2ccc(OC)c(OC)c2)C(C)C)cc1OC (stereo not drawn) [Verapamil, A-[3-[[2-(3,4-dimethoxyphenyl)ethyl]methylamino]propyl]-3,4-dimethoxy-A-(1-methylethyl) benzeneacetonitrile, reference compound]		comparable antihypertensive activity	350	93 millimeters of mercury	75	30 millimeters of mercury				
COc1ccc(CCN(C)CCSC(C#N)(c2ccc(OC)c(OC)c2)C(C)C)cc1OC (stereo not drawn) [1-methylethyl substituted thio compound, A-[[2-[[2-(3,4dimethoxyphenyl)ethyl]methylamino]ethyl]thio]-3,4-dimethoxy-A-(1-methylethyl) benzeneacetonitrile monohydrochloride]	0.8	comparable antihypertensive activity					320	97 millimeters of mercury	above 153	45
